Assays:
Assay in all cases: Drug affinity chromatography with c-ponatinib and LC-MS/MS (ponatinib interactome)
Format in all cases: binding
[1] = target: T1, proteins of U2OS cell lysate (Homo sapiens, UniProt O00159)
T1 construct: Proteins enriched by c-ponatinib from U2OS cell lysate; endogenous in cells; host or cells: U2OS cell lysate
Method: (§1) Drug affinity chromatography
(§2) U2OS cells were grown until approximately 80% confluent before being pelleted and washed with PBS. Cell pellets were subsequently lysed in buffer A (50 mM Tris pH 7.5, 0.8% v/v NP-40, 5% v/v glycerol, 1.5 mM MgCl2, 100 mM NaCl, 25 mM NaF, 1 mM Na3VO4, 1 mM PMSF, 1mM DTT, 10 μg/mL TLCK, 1 μg/ml Leupeptin, 1 μg/ml Aprotinin, 1 μg/ml soy bean trypsin) and lysates prepared […]
(§3) concentration was determined and lysates stored at -80 °C.
(§4) Briefly, 100 μl of bead slurry (50% in isopropanol) were used for each pulldown experiment. Beads were washed with DMSO (3 × 500 μl), and resuspended in DMSO (50 μl), to which the amine (0.025 μmol) and triethylamine (0.75 μl) were added. The beads were incubated at room temperature for 16 h, and depletion of free amine from the supernatant was determined by LC-MS analysis. Ethanolamine (2.5 μl) was then added to block any unreacted NHS sites, and the beads incubated for a further 16 h. Derivatized beads were then washed with DMSO (3 × 500 μl), buffer A (3 × 1 ml), and incubated with cell lysates (2 mg of protein per pulldown, at 6 […]
(§5) Beads and treated lysates were incubated for 2 h at 4 °C before washing with buffer A (5 ml), Buffer B (50 mM HEPES pH 7.5, 100 mM NaCl, 500 μM EDTA, 2.5 ml), and eluted with formic acid (100 mM, 250 μl). Samples were neutralized with triethylammoniumbicarbonate (TEAB, 1M, 62.5 μl) and stored at -20 °C until preparation for proteomic analysis.
(§6) Samples were reduced with DTT (10 mM final concentration) for 30 min at room temperature, alkylated with iodoacetamide (55 mM final concentration) for 30 min at room temperature, diluted to 300 μl with TEAB, and incubated with trypsin (6 μl, 0.2 mg/ml) overnight at 37 °C. The digests were desalted using SEPAC lite columns (Waters), eluted with 69 % v/v MeCN, 0.1 % v/v FA in H2O (1 ml) and dried in vacuo. Dried peptides were stored at -20 °C before resuspension in 2 % v/v MeCN, 1 % v/v FA in H2O (20 μl) for LC-MS/MS analysis.
(§7) LC-MS/MS data acquisition
(§8) Mass spectrometry data was acquired at the Discovery Proteomics Facility (University of Oxford).
(§9) Digested samples were analyzed by nano-UPLC–MS/MS using a Dionex Ultimate 3000 nano UPLC with EASY spray column (75 μm × 500 mm, 2 μm particle size, Thermo Fisher Scientific) with a 60 min gradient of 0.1 % (v/v) formic acid in 5 % (v/v) DMSO to 0.1 % (v/v) formic acid with 35 % (v/v) acetonitrile in 5 % (v/v) DMSO at a flow rate of approximately 250 nl min−1 (600 bar per 40 °C column temperature). Mass spectrometry data was acquired either with an Orbitrap Q Exactive (Survey scans acquired at a resolution of 70,000 @ 200m/z and the 15 most abundant precursors were selected for HCD fragmentation), or an Orbitrap Q Exactive High Field (HF) instrument (survey scans were […]

[2] = target: T2, proteins of U2OS cell lysate (Homo sapiens, UniProt O15372)
T2 construct: Proteins enriched by c-ponatinib from U2OS cell lysate; endogenous in cells; host or cells: U2OS cell lysate
Method: as §1, §2, §3, §4, §5, §6, §7, §8, §9

[3] = target: T3, proteins of U2OS cell lysate (Homo sapiens, UniProt O75396)
T3 construct: Proteins enriched by c-ponatinib from U2OS cell lysate; endogenous in cells; host or cells: U2OS cell lysate
Method: as §1, §2, §3, §4, §5, §6, §7, §8, §9

[4] = target: T4, proteins of U2OS cell lysate (Homo sapiens, UniProt O75947)
T4 construct: Proteins enriched by c-ponatinib from U2OS cell lysate; endogenous in cells; host or cells: U2OS cell lysate
Method: as §1, §2, §3, §4, §5, §6, §7, §8, §9

[5] = target: T5, proteins of U2OS cell lysate (Homo sapiens, UniProt P09497)
T5 construct: Proteins enriched by c-ponatinib from U2OS cell lysate; endogenous in cells; host or cells: U2OS cell lysate
Method: as §1, §2, §3, §4, §5, §6, §7, §8, §9

[6] = target: T6, proteins of U2OS cell lysate (Homo sapiens, UniProt P24539)
T6 construct: Proteins enriched by c-ponatinib from U2OS cell lysate; endogenous in cells; host or cells: U2OS cell lysate
Method: as §1, §2, §3, §4, §5, §6, §7, §8, §9

[7] = target: T7, proteins of U2OS cell lysate (Homo sapiens, UniProt P29597)
T7 construct: Proteins enriched by c-ponatinib from U2OS cell lysate; endogenous in cells; host or cells: U2OS cell lysate
Method: as §1, §2, §3, §4, §5, §6, §7, §8, §9

[8] = target: T8, proteins of U2OS cell lysate (Homo sapiens, UniProt P35268)
T8 construct: Proteins enriched by c-ponatinib from U2OS cell lysate; endogenous in cells; host or cells: U2OS cell lysate
Method: as §1, §2, §3, §4, §5, §6, §7, §8, §9

[9] = target: T9, proteins of U2OS cell lysate (Homo sapiens, UniProt P36957)
T9 construct: Proteins enriched by c-ponatinib from U2OS cell lysate; endogenous in cells; host or cells: U2OS cell lysate
Method: as §1, §2, §3, §4, §5, §6, §7, §8, §9

[10] = target: T10, proteins of U2OS cell lysate (Homo sapiens, UniProt P53999)
T10 construct: Proteins enriched by c-ponatinib from U2OS cell lysate; endogenous in cells; host or cells: U2OS cell lysate
Method: as §1, §2, §3, §4, §5, §6, §7, §8, §9

[11] = target: T11, proteins of U2OS cell lysate (Homo sapiens, UniProt Q01130)
T11 construct: Proteins enriched by c-ponatinib from U2OS cell lysate; endogenous in cells; host or cells: U2OS cell lysate
Method: as §1, §2, §3, §4, §5, §6, §7, §8, §9

[12] = target: T12, proteins of U2OS cell lysate (Homo sapiens, UniProt Q03252)
T12 construct: Proteins enriched by c-ponatinib from U2OS cell lysate; endogenous in cells; host or cells: U2OS cell lysate
Method: as §1, §2, §3, §4, §5, §6, §7, §8, §9

[13] = target: T13, proteins of U2OS cell lysate (Homo sapiens, UniProt Q13409)
T13 construct: Proteins enriched by c-ponatinib from U2OS cell lysate; endogenous in cells; host or cells: U2OS cell lysate
Method: as §1, §2, §3, §4, §5, §6, §7, §8, §9

[14] = target: T14, proteins of U2OS cell lysate (Homo sapiens, UniProt Q15428)
T14 construct: Proteins enriched by c-ponatinib from U2OS cell lysate; endogenous in cells; host or cells: U2OS cell lysate
Method: as §1, §2, §3, §4, §5, §6, §7, §8, §9

[15] = target: T15, proteins of U2OS cell lysate (Homo sapiens, UniProt Q15459)
T15 construct: Proteins enriched by c-ponatinib from U2OS cell lysate; endogenous in cells; host or cells: U2OS cell lysate
Method: as §1, §2, §3, §4, §5, §6, §7, §8, §9

[16] = target: T16, proteins of U2OS cell lysate (Homo sapiens, UniProt Q9BUF5)
T16 construct: Proteins enriched by c-ponatinib from U2OS cell lysate; endogenous in cells; host or cells: U2OS cell lysate
Method: as §1, §2, §3, §4, §5, §6, §7, §8, §9

[17] = target: T17, proteins of U2OS cell lysate (Homo sapiens, UniProt Q9NX63)
T17 construct: Proteins enriched by c-ponatinib from U2OS cell lysate; endogenous in cells; host or cells: U2OS cell lysate
Method: as §1, §2, §3, §4, §5, §6, §7, §8, §9

[18] = target: T18, proteins of U2OS cell lysate (Homo sapiens, UniProt Q9Y262)
T18 construct: Proteins enriched by c-ponatinib from U2OS cell lysate; endogenous in cells; host or cells: U2OS cell lysate
Method: as §1, §2, §3, §4, §5, §6, §7, §8, §9

T9 sequence (P36957 68-453): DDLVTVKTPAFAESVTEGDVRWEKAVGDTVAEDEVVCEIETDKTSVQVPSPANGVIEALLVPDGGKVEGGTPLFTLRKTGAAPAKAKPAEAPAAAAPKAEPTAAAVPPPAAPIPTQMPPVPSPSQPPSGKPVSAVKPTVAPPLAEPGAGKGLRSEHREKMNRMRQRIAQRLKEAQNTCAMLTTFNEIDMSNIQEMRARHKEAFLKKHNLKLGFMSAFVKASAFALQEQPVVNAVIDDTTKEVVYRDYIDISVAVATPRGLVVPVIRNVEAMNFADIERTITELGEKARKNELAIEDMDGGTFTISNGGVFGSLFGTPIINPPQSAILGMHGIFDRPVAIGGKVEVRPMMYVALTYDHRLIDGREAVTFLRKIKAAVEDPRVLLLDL
T17 sequence (Q9NX63 whole entry): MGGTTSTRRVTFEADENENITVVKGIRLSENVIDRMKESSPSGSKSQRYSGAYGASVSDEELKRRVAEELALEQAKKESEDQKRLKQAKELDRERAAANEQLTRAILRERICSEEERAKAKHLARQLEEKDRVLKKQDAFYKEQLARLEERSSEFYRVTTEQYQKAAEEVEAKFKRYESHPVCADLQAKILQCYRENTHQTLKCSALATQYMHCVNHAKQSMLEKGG
T6 sequence (P24539 43-256): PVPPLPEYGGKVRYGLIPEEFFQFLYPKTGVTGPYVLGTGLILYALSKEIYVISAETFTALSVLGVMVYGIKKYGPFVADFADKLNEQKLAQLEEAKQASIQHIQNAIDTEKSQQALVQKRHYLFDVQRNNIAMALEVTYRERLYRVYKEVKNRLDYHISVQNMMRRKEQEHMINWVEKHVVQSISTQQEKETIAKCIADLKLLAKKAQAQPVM
T15 sequence (Q15459 whole entry): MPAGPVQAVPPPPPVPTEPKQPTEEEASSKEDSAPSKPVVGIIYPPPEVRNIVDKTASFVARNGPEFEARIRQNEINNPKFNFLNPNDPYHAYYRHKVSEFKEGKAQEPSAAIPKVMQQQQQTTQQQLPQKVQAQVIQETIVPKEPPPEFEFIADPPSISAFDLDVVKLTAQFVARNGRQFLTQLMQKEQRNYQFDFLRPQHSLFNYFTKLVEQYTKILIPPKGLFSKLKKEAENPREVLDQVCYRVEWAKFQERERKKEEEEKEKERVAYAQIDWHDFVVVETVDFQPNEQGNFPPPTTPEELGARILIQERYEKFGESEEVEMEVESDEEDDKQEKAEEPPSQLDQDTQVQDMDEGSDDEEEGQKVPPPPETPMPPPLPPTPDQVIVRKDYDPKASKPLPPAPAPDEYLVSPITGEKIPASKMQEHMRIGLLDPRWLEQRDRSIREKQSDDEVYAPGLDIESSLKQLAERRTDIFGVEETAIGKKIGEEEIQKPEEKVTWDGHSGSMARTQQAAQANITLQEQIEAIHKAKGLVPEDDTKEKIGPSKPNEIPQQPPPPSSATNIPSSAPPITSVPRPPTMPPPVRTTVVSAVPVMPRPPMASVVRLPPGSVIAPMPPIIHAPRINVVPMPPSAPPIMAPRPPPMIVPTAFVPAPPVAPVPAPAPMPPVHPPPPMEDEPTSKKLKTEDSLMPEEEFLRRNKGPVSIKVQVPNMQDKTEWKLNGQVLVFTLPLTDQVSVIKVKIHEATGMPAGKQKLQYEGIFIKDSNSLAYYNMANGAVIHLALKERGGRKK
T16 sequence (Q9BUF5 whole entry): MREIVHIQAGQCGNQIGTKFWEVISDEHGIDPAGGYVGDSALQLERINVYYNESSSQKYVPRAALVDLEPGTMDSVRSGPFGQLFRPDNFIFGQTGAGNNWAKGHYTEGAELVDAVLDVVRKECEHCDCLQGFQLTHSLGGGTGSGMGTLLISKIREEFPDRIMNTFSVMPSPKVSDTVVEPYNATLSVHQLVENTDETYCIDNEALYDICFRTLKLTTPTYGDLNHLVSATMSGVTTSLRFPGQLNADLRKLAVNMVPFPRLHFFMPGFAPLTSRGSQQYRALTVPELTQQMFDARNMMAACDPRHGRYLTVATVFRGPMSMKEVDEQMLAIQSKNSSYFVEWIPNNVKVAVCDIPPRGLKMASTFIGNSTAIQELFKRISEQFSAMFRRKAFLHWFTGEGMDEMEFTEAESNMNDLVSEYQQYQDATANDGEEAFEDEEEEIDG
T18 sequence (Q9Y262 whole entry): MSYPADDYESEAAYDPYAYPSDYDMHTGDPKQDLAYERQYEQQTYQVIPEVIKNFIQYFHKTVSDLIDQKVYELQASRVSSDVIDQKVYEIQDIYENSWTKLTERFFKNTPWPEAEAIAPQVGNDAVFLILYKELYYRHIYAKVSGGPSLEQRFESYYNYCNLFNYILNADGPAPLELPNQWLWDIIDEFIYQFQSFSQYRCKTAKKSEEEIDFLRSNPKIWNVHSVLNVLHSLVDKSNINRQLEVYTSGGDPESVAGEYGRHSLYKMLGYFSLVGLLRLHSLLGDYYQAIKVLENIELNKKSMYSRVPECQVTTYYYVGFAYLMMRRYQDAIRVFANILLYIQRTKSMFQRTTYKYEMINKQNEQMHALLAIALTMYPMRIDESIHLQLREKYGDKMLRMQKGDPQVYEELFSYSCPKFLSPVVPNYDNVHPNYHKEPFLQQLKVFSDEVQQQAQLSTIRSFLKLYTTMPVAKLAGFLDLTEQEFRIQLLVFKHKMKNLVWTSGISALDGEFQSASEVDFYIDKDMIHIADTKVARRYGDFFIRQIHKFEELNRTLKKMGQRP
T12 sequence (Q03252 whole entry): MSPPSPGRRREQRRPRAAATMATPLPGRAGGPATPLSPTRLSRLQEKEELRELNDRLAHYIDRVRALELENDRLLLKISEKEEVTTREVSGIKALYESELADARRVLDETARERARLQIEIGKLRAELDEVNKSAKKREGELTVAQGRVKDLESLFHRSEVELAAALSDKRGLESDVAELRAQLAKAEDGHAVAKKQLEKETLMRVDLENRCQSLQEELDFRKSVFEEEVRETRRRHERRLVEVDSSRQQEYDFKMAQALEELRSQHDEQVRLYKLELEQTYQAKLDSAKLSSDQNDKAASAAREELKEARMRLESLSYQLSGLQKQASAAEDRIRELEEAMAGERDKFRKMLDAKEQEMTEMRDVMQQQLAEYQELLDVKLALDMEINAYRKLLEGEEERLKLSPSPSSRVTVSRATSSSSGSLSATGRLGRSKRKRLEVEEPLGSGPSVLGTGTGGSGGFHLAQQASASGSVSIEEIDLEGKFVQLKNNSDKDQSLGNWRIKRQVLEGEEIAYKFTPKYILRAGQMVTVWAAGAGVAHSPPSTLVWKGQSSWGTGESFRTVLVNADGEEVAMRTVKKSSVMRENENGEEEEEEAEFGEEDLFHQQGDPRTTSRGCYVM
T14 sequence (Q15428 whole entry): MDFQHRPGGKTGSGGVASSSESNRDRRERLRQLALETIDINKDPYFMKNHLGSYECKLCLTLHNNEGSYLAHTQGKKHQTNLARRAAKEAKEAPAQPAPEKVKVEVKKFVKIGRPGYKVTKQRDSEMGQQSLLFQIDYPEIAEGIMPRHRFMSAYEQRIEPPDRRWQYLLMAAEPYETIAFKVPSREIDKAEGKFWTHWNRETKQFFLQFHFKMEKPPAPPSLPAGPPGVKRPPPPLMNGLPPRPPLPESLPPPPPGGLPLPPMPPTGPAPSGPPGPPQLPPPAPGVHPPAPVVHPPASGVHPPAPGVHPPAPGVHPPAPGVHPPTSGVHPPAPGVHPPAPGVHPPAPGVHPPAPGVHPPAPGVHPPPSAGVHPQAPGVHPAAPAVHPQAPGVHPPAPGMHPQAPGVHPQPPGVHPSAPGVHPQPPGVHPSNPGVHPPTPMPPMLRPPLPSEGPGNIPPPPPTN
T11 sequence (Q01130 whole entry): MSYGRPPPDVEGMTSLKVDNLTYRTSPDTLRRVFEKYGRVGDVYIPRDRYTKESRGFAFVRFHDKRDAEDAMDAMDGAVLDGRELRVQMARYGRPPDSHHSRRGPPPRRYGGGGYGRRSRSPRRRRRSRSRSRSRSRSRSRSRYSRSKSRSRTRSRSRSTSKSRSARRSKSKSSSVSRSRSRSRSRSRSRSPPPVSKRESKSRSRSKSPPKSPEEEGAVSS
T5 sequence (P09497 whole entry): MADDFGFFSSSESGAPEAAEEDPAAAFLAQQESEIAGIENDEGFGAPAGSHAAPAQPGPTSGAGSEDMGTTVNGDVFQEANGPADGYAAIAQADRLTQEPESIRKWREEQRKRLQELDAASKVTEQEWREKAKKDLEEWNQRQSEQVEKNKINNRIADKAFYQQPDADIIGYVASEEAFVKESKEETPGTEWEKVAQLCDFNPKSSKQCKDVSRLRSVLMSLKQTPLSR
T4 sequence (O75947 whole entry): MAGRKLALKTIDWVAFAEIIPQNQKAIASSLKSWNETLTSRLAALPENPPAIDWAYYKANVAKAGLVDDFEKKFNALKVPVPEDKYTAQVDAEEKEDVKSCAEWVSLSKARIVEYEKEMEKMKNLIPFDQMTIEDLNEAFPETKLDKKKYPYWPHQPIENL
T3 sequence (O75396 whole entry): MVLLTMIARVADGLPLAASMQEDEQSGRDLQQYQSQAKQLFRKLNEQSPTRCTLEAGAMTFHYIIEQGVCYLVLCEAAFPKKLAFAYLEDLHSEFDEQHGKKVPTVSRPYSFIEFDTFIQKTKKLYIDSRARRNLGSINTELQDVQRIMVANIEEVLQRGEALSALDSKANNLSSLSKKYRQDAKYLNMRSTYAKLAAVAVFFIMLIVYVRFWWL
T2 sequence (O15372 whole entry): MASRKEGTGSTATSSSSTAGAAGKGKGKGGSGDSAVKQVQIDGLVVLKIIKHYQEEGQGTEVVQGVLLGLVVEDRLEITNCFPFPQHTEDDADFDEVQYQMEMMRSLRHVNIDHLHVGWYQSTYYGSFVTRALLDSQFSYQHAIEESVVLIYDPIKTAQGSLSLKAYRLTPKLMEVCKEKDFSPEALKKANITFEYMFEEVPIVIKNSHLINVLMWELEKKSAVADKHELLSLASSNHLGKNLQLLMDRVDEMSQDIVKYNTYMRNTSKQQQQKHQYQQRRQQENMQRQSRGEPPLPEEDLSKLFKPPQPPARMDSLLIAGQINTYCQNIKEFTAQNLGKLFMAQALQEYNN

Cc1ccc(C(=O)Nc2ccc(CN3CCN(C)CC3)c(C(F)(F)F)c2)cc1C#Cc1cnc2cccnn12 [PON]
Average LFQ PON_WT ([1]; MYO1C, Unconventional myosin-Ic): 21.7408
Average LFQ PON_WT ([2]; EIF3H;EIF3S3, Eukaryotic translation initiation factor 3 subunit H): 23.1902
Average LFQ PON_WT ([3]; SEC22B, Vesicle-trafficking protein SEC22b): 22.7294
Average LFQ PON_WT ([4]; ATP5H, ATP synthase subunit d, mitochondrial): 23.183
Average LFQ PON_WT ([5]; CLTB, Clathrin light chain B): 22.5074
Average LFQ PON_WT ([6]; ATP5F1, ATP synthase subunit b, mitochondrial): 22.7408
Average LFQ PON_WT ([7]; TYK2, Non-receptor tyrosine-protein kinase TYK2): 22.5645
Average LFQ PON_WT ([8]; RPL22, 60S ribosomal protein L22): 21.5804
Average LFQ PON_WT ([9]; DLST, Dihydrolipoyllysine-residue succinyltransferase component of 2-oxoglutarate dehydrogenase complex, mitochondrial): 21.6592
Average LFQ PON_WT ([10]; SUB1, Activated RNA polymerase II transcriptional coactivator p15): 22.9694
Average LFQ PON_WT ([11]; SRSF2, Serine/arginine-rich splicing factor 2): 22.8743
Average LFQ PON_WT ([12]; LMNB2, Lamin-B2): 22.9109
Average LFQ PON_WT ([13]; DYNC1I2, Cytoplasmic dynein 1 intermediate chain 2): 22.2038
Average LFQ PON_WT ([14]; SF3A2, Splicing factor 3A subunit 2): 22.8464
Average LFQ PON_WT ([15]; SF3A1, Splicing factor 3A subunit 1): 21.9763
Average LFQ PON_WT ([16]; TUBB6, Tubulin beta-6 chain): 22.6671
Average LFQ PON_WT ([17]; CHCHD3, Coiled-coil-helix-coiled-coil-helix domain-containing protein 3, mitochondrial): 22.5984
Average LFQ PON_WT ([18]; EIF3L, Eukaryotic translation initiation factor 3 subunit L): 22.8981

Cc1ccc(C(=O)Nc2ccc(CN3CCN(CCCN)CC3)c(C(F)(F)F)c2)cc1C#Cc1cnc2cccnn12 [c-ponatinib, reference compound]
Average LFQ intensity ([1]; captured protein MYO1C, Rank 209): 21.7408
Average LFQ intensity ([2]; captured protein EIF3H;EIF3S3, Rank 114): 23.1902
Average LFQ intensity ([3]; captured protein SEC22B, Rank 146): 22.7294
Average LFQ intensity ([4]; captured protein ATP5H, Rank 115): 23.183
Average LFQ intensity ([5]; captured protein CLTB, Rank 157): 22.5074
Average LFQ intensity ([6]; captured protein ATP5F1, Rank 144): 22.7408
Average LFQ intensity ([7]; captured protein TYK2, Rank 155): 22.5645
Average LFQ intensity ([8]; captured protein RPL22, Rank 221): 21.5804
Average LFQ intensity ([9]; captured protein DLST, Rank 218): 21.6592
Average LFQ intensity ([10]; captured protein SUB1, Rank 126): 22.9694
Average LFQ intensity ([11]; captured protein SRSF2, Rank 132): 22.8743
Average LFQ intensity ([12]; captured protein LMNB2, Rank 128): 22.9109
Average LFQ intensity ([13]; captured protein DYNC1I2, Rank 179): 22.2038
Average LFQ intensity ([14]; captured protein SF3A2, Rank 134): 22.8464
Average LFQ intensity ([15]; captured protein SF3A1, Rank 193): 21.9763
Average LFQ intensity ([16]; captured protein TUBB6, Rank 151): 22.6671
Average LFQ intensity ([17]; captured protein CHCHD3, Rank 154): 22.5984
Average LFQ intensity ([18]; captured protein EIF3L, Rank 130): 22.8981

Source: publication PMC6120666 (The EMBO Journal, 2018)
